Some test systems named below: EKVX; NCI-H522; SNB-75; UO-31; SF-539; SF-295; SK-OV-3; TK-10; RPMI-8226; Hs-578T; MCF7; U-251; HCC 2998; DU-145; PC-3; T47D; A549; HL-60; OVCAR-5.
What all share (test): DTP human tumour cell line panel, 48 h

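Five concentrations, 48 hours, 96-well plates. At the GI50, growth is halved.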 Active and inactive are the calls of the source. Rule as the data show it: active = GI50 up to about 1.1 µM and inactive = higher.

As for `S=c1[nH]c(Cl)cc2nc(Cl)cn12`, the GI50 with EKVX is 2.25 µM (inactive); with NCI-H522 it was 1.57 µM (inactive); with SNB-75 it was 2.1 µM (inactive); in the experiment with UO-31, 4.7 µM (inactive); with SF-539, 2.2 µM (inactive); with SF-295, 2.88 µM (inactive). Further, the GI50 in the experiment with SK-OV-3 was 2.93 µM (inactive); in the experiment with TK-10, 7.5 µM (inactive); in the experiment with RPMI-8226, 16.1 µM (inactive); in the experiment with Hs-578T it was 2.3 µM (inactive); in the experiment on MCF7, 3.13 µM (inactive); with U-251, 4.53 µM (inactive). Moreover, the GI50 with HCC 2998 is 8.79 µM (inactive); with DU-145 it was 5.01 µM (inactive); with PC-3, 3.94 µM (inactive); in the experiment on T47D, 23.4 µM (inactive); with A549, 20.2 µM (inactive).
Turning to `COc1cc2nc(-c3cccs3)nc(N3C(c4cc(OC)c(OC)c(OC)c4)=NNC(=O)c4ccccc43)c2cc1OC`, the GI50 was 30.8 µM (inactive) in the experiment on EKVX; 38 µM (inactive) in the experiment with NCI-H522; 25.7 µM (inactive) in the experiment on SNB-75; 27.4 µM (inactive) in the experiment with UO-31; 21.8 µM (inactive) in the experiment on SF-539; 54.7 µM (inactive) with HL-60. Moreover, the GI50 with SF-295 was 17.9 µM (inactive); with SK-OV-3 it was 71.1 µM (inactive); in the experiment with TK-10, 22.8 µM (inactive); with Hs-578T, 38.9 µM (inactive); in the experiment on MCF7 it was 46.3 µM (inactive); in the experiment on U-251, 15.8 µM (inactive). The GI50 is 29 µM (inactive) in the experiment on DU-145; 29.6 µM (inactive) in the experiment with PC-3; 39 µM (inactive) with T47D; 31.1 µM (inactive) in the experiment with A549; 21.8 µM (inactive) with OVCAR-5.
Take `CCOC(=O)C1C(O)CC2c3ccccc3-c3ccccc3C21` (stereo unspecified): the GI50 with EKVX is > 100 µM (inactive); in the experiment with NCI-H522, 35.4 µM (inactive); in the experiment with SNB-75 it was 27.1 µM (inactive); in the experiment on UO-31, > 100 µM (inactive); in the experiment with HL-60, > 100 µM (inactive); in the experiment with SF-295 it was 43.7 µM (inactive). Also, the GI50 in the experiment on SK-OV-3 was 21.2 µM (inactive); in the experiment with TK-10, 55.2 µM (inactive); in the experiment on RPMI-8226 it was > 100 µM (inactive); in the experiment with Hs-578T, 21.3 µM (inactive); with MCF7, 49.5 µM (inactive); in the experiment with U-251, 23.8 µM (inactive). Moreover, the GI50 is > 100 µM (inactive) with DU-145; > 100 µM (inactive) with PC-3; > 100 µM (inactive) in the experiment with T47D; 44.9 µM (inactive) in the experiment on A549; > 100 µM (inactive) in the experiment on OVCAR-5.
For `CC(C)(CC#N)c1cc(CC(C)(C)c2cc(CC(C)(C)c3cc(C(C)(C)C4(C)OCCO4)no3)no2)no1`, the GI50 was 33 µM (inactive) with EKVX; 24.6 µM (inactive) in the experiment with NCI-H522; 14.7 µM (inactive) in the experiment with SNB-75; > 100 µM (inactive) in the experiment on UO-31; 31 µM (inactive) in the experiment on SF-295; 27.1 µM (inactive) in the experiment with SK-OV-3. Besides, the GI50 was 51.5 µM (inactive) in the experiment with TK-10; > 100 µM (inactive) in the experiment on RPMI-8226; 22.8 µM (inactive) with Hs-578T; 19.1 µM (inactive) with MCF7; 39.8 µM (inactive) with U-251; > 100 µM (inactive) in the experiment on HCC 2998. Also, the GI50 in the experiment with DU-145 was 50.4 µM (inactive); in the experiment on PC-3, 39.7 µM (inactive); in the experiment on T47D, 9.08 µM (inactive); in the experiment with A549, > 100 µM (inactive); in the experiment on OVCAR-5 it was > 100 µM (inactive).
As for `Cc1cc(C)n(CN(Cn2nc(C)cc2C)c2ccccc2)n1`, the GI50 in the experiment on EKVX is 24.7 µM (inactive); in the experiment with NCI-H522, 23.2 µM (inactive); in the experiment on UO-31, 21.7 µM (inactive); with SF-539, 19.4 µM (inactive); with HL-60 it was 2.99 µM (inactive); in the experiment on SF-295, 57.9 µM (inactive). Besides, the GI50 is 40.9 µM (inactive) in the experiment on SK-OV-3; 46.1 µM (inactive) in the experiment with TK-10; 18.4 µM (inactive) in the experiment on RPMI-8226; 45 µM (inactive) in the experiment on Hs-578T; 23.1 µM (inactive) in the experiment on MCF7; 17.8 µM (inactive) with U-251. For the same molecule, the GI50 is 30.3 µM (inactive) with DU-145; 27.8 µM (inactive) in the experiment on PC-3; 23.7 µM (inactive) in the experiment with T47D; 26.8 µM (inactive) with A549; 30.1 µM (inactive) in the experiment on OVCAR-5.
Consider `Cc1cc(S(=O)(=O)[N-]/C(=N/S(=O)(=O)c2ccc(Cl)cc2)[n+]2ccc(N(C)C)cc2)c(SCC(=O)O)cc1Cl`, for which the GI50 in the experiment on EKVX was 46.8 µM (inactive); with SNB-75, 20.5 µM (inactive); in the experiment with UO-31, > 100 µM (inactive); with SF-539, 35.5 µM (inactive); in the experiment on HL-60 it was > 100 µM (inactive); in the experiment on SF-295 it was 30.7 µM (inactive). Moreover, the GI50 in the experiment with SK-OV-3 was 75 µM (inactive); in the experiment with TK-10, 86.5 µM (inactive); with RPMI-8226, 71.1 µM (inactive); with Hs-578T, > 100 µM (inactive); in the experiment on MCF7, 43.8 µM (inactive); in the experiment with U-251 it was > 100 µM (inactive). In addition, the GI50 is > 100 µM (inactive) in the experiment with DU-145; 69.5 µM (inactive) in the experiment on PC-3; > 100 µM (inactive) with T47D; > 100 µM (inactive) in the experiment on A549; 21.5 µM (inactive) in the experiment on OVCAR-5.
As to `COc1ccc(N)c(C(=O)CCNC(C)=O)c1` [KINURENAMINE], the GI50 in the experiment with EKVX, with NCI-H522, in the experiment with SNB-75, with UO-31, in the experiment on SF-539 and in the experiment on HL-60 was > 100 µM (inactive) throughout. For the same molecule, the GI50 in the experiment on SF-295, in the experiment on SK-OV-3, with TK-10, in the experiment on RPMI-8226, in the experiment with Hs-578T and in the experiment on MCF7 was > 100 µM (inactive) throughout. Moreover, the GI50 in the experiment on U-251, with DU-145, in the experiment with PC-3, with T47D, in the experiment on A549 and with OVCAR-5 was > 100 µM (inactive) each time.
In the case of `CC(C)(CO)CNc1nc(N)nc(Cl)c1N`, the GI50 in the experiment on EKVX, in the experiment on NCI-H522, in the experiment with SNB-75, in the experiment on UO-31, with SF-539 and in the experiment with SF-295 was > 100 µM (inactive) each time. For the same molecule, the GI50 in the experiment with SK-OV-3, in the experiment with TK-10, with Hs-578T, in the experiment with MCF7, in the experiment with U-251 and in the experiment with HCC 2998 was > 100 µM (inactive) throughout. The GI50 in the experiment with DU-145 is > 100 µM (inactive); in the experiment on PC-3, > 100 µM (inactive); in the experiment with T47D it was 58.5 µM (inactive); in the experiment on A549, > 100 µM (inactive); in the experiment with OVCAR-5, > 100 µM (inactive).
Consider `Clc1ccccc1/C=C/c1nsc(/C=C/c2ccccc2Cl)n1`, for which the GI50 was 61 µM (inactive) with EKVX; 33.1 µM (inactive) in the experiment with NCI-H522; 71.4 µM (inactive) in the experiment on SNB-75; > 100 µM (inactive) in the experiment on UO-31; 78.5 µM (inactive) in the experiment with SF-539; 21.6 µM (inactive) with HL-60. Further, the GI50 is 54 µM (inactive) in the experiment on SF-295; 70.1 µM (inactive) in the experiment with SK-OV-3; 30.8 µM (inactive) in the experiment on TK-10; 31.3 µM (inactive) in the experiment with RPMI-8226; > 100 µM (inactive) with Hs-578T; 32 µM (inactive) with MCF7. Moreover, the GI50 with U-251 is 34.8 µM (inactive); with DU-145 it was > 100 µM (inactive); in the experiment with PC-3 it was 30.1 µM (inactive); in the experiment with T47D, 10.4 µM (inactive); in the experiment with A549 it was 73.8 µM (inactive); in the experiment on OVCAR-5 it was > 100 µM (inactive).
Regarding `CC(C)(C)c1cc(C2NCCO2)cc(C(C)(C)C)c1O` (stereo unspecified), the GI50 with EKVX is 77.3 µM (inactive); in the experiment on NCI-H522, > 100 µM (inactive); in the experiment with SNB-75, 10.8 µM (inactive); in the experiment with SF-539, > 100 µM (inactive); with HL-60 it was > 100 µM (inactive); in the experiment with SF-295, 34.6 µM (inactive). Further, the GI50 in the experiment on SK-OV-3 was 32.1 µM (inactive); in the experiment on TK-10, 37.1 µM (inactive); with RPMI-8226, > 100 µM (inactive); in the experiment on Hs-578T, 79.3 µM (inactive); in the experiment with MCF7 it was 76.7 µM (inactive); in the experiment on U-251, 37.1 µM (inactive). For the same molecule, the GI50 in the experiment with DU-145 was > 100 µM (inactive); with PC-3, 82 µM (inactive); in the experiment on T47D it was 0.0538 µM (active); in the experiment on OVCAR-5, > 100 µM (inactive).
For `CCOC(=O)c1c2c(n(C)c1-c1ccccc1)C(=O)C(C)=CC2=O`, the GI50 in the experiment on EKVX is 5.87 µM (inactive); in the experiment on NCI-H522 it was 1.69 µM (inactive); in the experiment on SNB-75 it was 14.9 µM (inactive); in the experiment on UO-31 it was 12.2 µM (inactive); in the experiment with SF-539, 4.05 µM (inactive); with HL-60, 2.94 µM (inactive). The GI50 in the experiment on SF-295 was 19 µM (inactive); in the experiment with SK-OV-3, 16.7 µM (inactive); with TK-10 it was 8.43 µM (inactive); with RPMI-8226 it was 1.9 µM (inactive); with Hs-578T, 18.4 µM (inactive); in the experiment on MCF7 it was 2.37 µM (inactive). The GI50 in the experiment on U-251 was 7.8 µM (inactive); in the experiment with DU-145 it was 17.5 µM (inactive); in the experiment on PC-3 it was 11.4 µM (inactive); in the experiment on T47D, 3.13 µM (inactive); in the experiment on A549, 12.2 µM (inactive); in the experiment on OVCAR-5, 6.05 µM (inactive).
On to `NC(=O)NNc1nc(-c2ccccc2)cs1`, for which the GI50 in the experiment with EKVX, in the experiment with NCI-H522, with SNB-75, with UO-31, in the experiment with SF-295 and in the experiment on SK-OV-3 was > 100 µM (inactive) each time. Further, the GI50 in the experiment with TK-10, in the experiment on RPMI-8226, in the experiment on Hs-578T, with MCF7, in the experiment on U-251 and in the experiment on HCC 2998 was > 100 µM (inactive) in each case. For the same molecule, the GI50 with DU-145, in the experiment on PC-3, in the experiment with T47D, in the experiment with A549 and with OVCAR-5 was > 100 µM (inactive) each time.

The values are drawn from ChEMBL document CHEMBL1201862, “PubChem BioAssay data set” (2004).
